Assay results from ChEMBL document CHEMBL1134199, “Peptoids as endothelin receptor antagonists” (Bioorg Med Chem Lett, 2001).

What was measured:
[1] = biological target: T1, Endothelin-1 receptor (Sus scrofa, UniProt Q29010); experiment: Ability to bind with Endothelin A receptor competitively in the presence of (125 I) endothelin using receptor binding assay.
T1 sequence (Q29010 whole entry): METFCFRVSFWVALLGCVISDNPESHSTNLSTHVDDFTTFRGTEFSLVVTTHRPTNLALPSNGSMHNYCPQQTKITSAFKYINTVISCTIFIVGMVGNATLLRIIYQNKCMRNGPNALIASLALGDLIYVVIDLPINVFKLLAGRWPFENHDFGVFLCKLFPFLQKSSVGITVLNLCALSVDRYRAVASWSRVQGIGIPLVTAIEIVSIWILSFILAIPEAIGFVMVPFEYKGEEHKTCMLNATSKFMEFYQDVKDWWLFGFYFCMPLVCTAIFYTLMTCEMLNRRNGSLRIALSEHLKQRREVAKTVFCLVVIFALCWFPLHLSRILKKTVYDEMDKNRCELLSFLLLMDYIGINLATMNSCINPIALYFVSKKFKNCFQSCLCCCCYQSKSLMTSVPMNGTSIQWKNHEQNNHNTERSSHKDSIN

[2] = biological target: T2, Endothelin receptor type B (Sus scrofa, UniProt P35463); experiment: Ability to bind with Endothelin B receptor competitively in the presence of (125 I) endothelin using receptor binding assay.
T2 sequence (P35463 whole entry): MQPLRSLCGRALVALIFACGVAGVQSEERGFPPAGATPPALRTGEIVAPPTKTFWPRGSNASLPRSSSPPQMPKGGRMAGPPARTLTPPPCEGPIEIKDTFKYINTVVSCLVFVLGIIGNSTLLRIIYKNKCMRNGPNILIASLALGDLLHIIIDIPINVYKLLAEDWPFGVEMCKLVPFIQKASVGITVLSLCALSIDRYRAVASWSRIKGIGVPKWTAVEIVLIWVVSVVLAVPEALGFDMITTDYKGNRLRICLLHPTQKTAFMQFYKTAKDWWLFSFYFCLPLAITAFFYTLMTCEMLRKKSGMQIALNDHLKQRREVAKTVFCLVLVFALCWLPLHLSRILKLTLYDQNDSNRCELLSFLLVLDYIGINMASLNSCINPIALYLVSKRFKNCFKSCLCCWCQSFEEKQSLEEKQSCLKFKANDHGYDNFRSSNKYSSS

| SMILES | IC50 [1] | IC50 [2] |
| --- | --- | --- |
| COc1ccc(CN(C(=O)c2ccc(OC)cc2)C(Cc2c[nH]c3ccccc23)C(=O)O)cc1 (stereo not given) | > 100 µM | > 100 µM |
| COc1ccc(CC(C(=O)O)N(Cc2ccc(OC)cc2)Cc2cc(OC)c(OC)c(OC)c2)cc1 (stereo not given) | – | 19 µM |
| O=C(O)C(Cc1c[nH]c2ccccc12)N(Cc1cc2c(cc1Cl)OCO2)C(=O)/C=C/c1ccc2c(c1)OCO2 (stereo not given) | 8.9 µM | 0.66 µM |
| CCOC(=O)CN(Cc1cc2c(cc1Cl)OCO2)C(Cc1ccc(O)cc1)C(=O)O (stereo not given) | 21.3 µM | 55 µM |
| COc1ccc(CN(Cc2cc3c(cc2Cl)OCO3)C(Cc2ccc(O)cc2)C(=O)O)cc1 (stereo not given) | > 100 µM | 5.5 µM |
| COc1ccc(CN(C(=O)/C=C/c2ccc3c(c2)OCO3)C(Cc2c[nH]c3ccccc23)C(=O)O)cc1 (stereo not given) | 10 µM | 0.47 µM |
| O=C(O)C(Cc1c[nH]c2ccccc12)N(Cc1cc2c(cc1Cl)OCO2)Cc1cc2c(cc1Cl)OCO2 (stereo not given) | 16.3 µM | 6.7 µM |
| COc1ccc(C(=O)N(Cc2cc3c(cc2Cl)OCO3)C(Cc2c[nH]c3ccccc23)C(=O)O)cc1 (stereo not given) | 30 µM | 49 µM |
| COc1cccc(CN(C(=O)/C=C/c2ccc3c(c2)OCO3)C(Cc2ccc(O)cc2)C(=O)O)c1 (stereo not given) | 31 µM | – |
| O=C(O)C(Cc1ccc(O)cc1)N(Cc1cc2c(cc1Cl)OCO2)C(=O)/C=C/c1ccc2c(c1)OCO2 (stereo not given) | 38 µM | 66 µM |
| COc1ccc(CN(Cc2cc(OC)cc(OC)c2)C(Cc2ccc(O)cc2)C(=O)O)cc1 (stereo not given) | 36 µM | – |
| COc1ccc(CN(C(=O)/C=C/c2ccc3c(c2)OCO3)C(Cc2ccc(O)cc2)C(=O)O)cc1 (stereo not given) | 6 µM | 12.6 µM |
| COc1ccc(CN(C(=O)/C=C/c2ccc3c(c2)OCO3)C(Cc2ccccc2)C(=O)O)cc1 (stereo not given) | 27 µM | 6.4 µM |
| COc1ccc(CN(Cc2cc(OC)c(OC)c(OC)c2)C(Cc2c[nH]c3ccccc23)C(=O)O)cc1 (stereo not given) | 42 µM | 35 µM |
